How the values were obtained:
JAK3 = JAK3 (Homo sapiens (Human), UniProt P52333); experiment: Jak Biochemical HTRF Assay (JAK3); conditions: recombinant GST-tagged catalytic domain, [ATP] 2.9 μM
JAK2 = JAK2 (Homo sapiens (Human), UniProt O60674); experiment: Jak Biochemical HTRF Assay (JAK2); conditions: recombinant GST-tagged catalytic domain, [ATP] 8.5 μM
Chain of JAK2 (O60674 849-1124): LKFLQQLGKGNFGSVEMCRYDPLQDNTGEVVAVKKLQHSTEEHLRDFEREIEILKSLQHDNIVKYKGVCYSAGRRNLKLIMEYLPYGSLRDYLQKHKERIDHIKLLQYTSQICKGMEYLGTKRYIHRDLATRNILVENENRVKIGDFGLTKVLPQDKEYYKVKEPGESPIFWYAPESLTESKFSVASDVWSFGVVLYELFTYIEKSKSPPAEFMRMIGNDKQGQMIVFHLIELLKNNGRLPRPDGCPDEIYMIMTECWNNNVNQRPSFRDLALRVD

Chain of JAK3 (P52333 822-1111): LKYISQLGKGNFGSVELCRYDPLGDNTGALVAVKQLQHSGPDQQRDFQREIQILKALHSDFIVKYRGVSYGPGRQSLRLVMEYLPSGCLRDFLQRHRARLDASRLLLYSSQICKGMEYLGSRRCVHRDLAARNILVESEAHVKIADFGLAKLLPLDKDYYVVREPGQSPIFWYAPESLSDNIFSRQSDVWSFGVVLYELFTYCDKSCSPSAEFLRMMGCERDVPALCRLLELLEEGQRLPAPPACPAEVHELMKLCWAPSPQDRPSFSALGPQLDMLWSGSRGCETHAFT

Structure (SMILES)	IC50 (JAK3) [nM]	IC50 (JAK2) [nM]	IC50 (JAK3; given as range class) [nM]	IC50 (JAK2; given as range class) [nM]
C=C(C)C(=O)Nc1cc(-c2ncnc3[nH]cc(C(=O)OCC)c23)ccc1C(=O)N(C)C [Example 4-28, ethyl 4-{4-(dimethylcarbamoyl)-3-[(2-methylacryloyl)amino]phenyl}-7H-pyrrolo[2,3-d]pyrimidine-5-carboxylate]	1.5	> 1500		
C=C(CNC(C)=O)C(=O)Nc1cccc(-c2ncnc3[nH]cc(C(=O)OCC)c23)c1 [Example 13-3, ethyl 4-(3-(2-(acetamidomethyl)acrylamido)phenyl)-7H-pyrrolo[2,3-d]pyrimidine-5-carboxylate]		> 1500	< 10	
CCOC(=O)c1c[nH]c2ncnc(-c3csc4ccccc34)c12 [Example 1-71, ethyl 4-(1-benzothiophen-3-yl)-7H-pyrrolo[2,3-d]pyrimidine-5-carboxylate]			10 to 500	> 500
C=C(C)C(=O)Nc1cc(-c2ncnc3[nH]cc(C(=O)OCC)c23)c[nH]c1=O [Example 4-33, ethyl 4-{5-[(2-methylacryloyl)amino]-6-oxo-1,6-dihydropyridin-3-yl}-7H-pyrrolo[2,3-d]pyrimidine-5-carboxylate]	0.47	> 1500		
C=C(C)C(=O)Nc1cc(-c2ncnc3[nH]cc(C(=O)OCC)c23)ccc1C#N [Example 4-27, ethyl 4-{4-cyano-3-[(2-methylacryloyl)amino]phenyl}-7H-pyrrolo[2,3-d]pyrimidine-5-carboxylate]	0.14	> 1500		
CCOC(=O)c1c[nH]c2ncnc(-c3ccc(C(=O)N(C)C)cc3)c12 [Example 1-13, ethyl 4-[4-(dimethylcarbamoyl)phenyl]-7H-pyrrolo[2,3-d]pyrimidine-5-carboxylate]			10 to 500	> 500
C=C(C)C(=O)Nc1cccc(-c2ncnc3[nH]cc(-c4cccc(F)c4Cl)c23)c1 [Example 20-5, N-{3-[5-(2-chloro-3-fluorophenyl)-7H-pyrrolo[2,3-d]pyrimidin-4-yl]phenyl}-2-methylprop-2-enamide]	1.5	> 1500		
CCOC(=O)c1c[nH]c2ncnc(-c3cccc(OC(F)F)c3)c12 [Example 1-59, ethyl 4-[3-(difluoromethoxy)phenyl]-7H-pyrrolo[2,3-d]pyrimidine-5-carboxylate]			10 to 500	10 to 500
C=C(C)C(=O)Nc1cccc(-c2ncnc3[nH]cc(-c4nnc(C)o4)c23)c1 [Example 26, N-(3-(5-(5-Methyl-1,3,4-oxadiazol-2-yl)-7H-pyrrolo[2,3-d]pyrimidin-4-yl)phenyl)methacrylamide]	2.5	> 1500		
CCOC(=O)c1c[nH]c2ncnc(-c3ccc4cn[nH]c4c3)c12 [Example 1-76, ethyl 4-(1H-indazol-6-yl)-7H-pyrrolo[2,3-d]pyrimidine-5-carboxylate]			10 to 500	10 to 500
C=C(C)C(=O)Nc1cc(C)cc(-c2ncnc3[nH]cc(C(=O)OCC)c23)c1 [Example 4-26, ethyl 4-{3-methyl-5-[(2-methylacryloyl)amino]phenyl}-7H-pyrrolo[2,3-d]pyrimidine-5-carboxylate]	0.19	> 1500		
CCOC(=O)c1c[nH]c2ncnc(-c3cnc4[nH]ccc4c3)c12 [Example 1-84, ethyl 4-(1H-pyrrolo[2,3-b]pyridin-5-yl)-7H-pyrrolo[2,3-d]pyrimidine-5-carboxylate]			10 to 500	10 to 500
CCOC(=O)c1c[nH]c2ncnc(-c3cccc(NC(=O)/C=C/COC)c3)c12 [Example 5-8, ethyl 4-(3-{[(2E)-4-methoxybut-2-enoyl]amino}phenyl)-7H-pyrrolo[2,3-d]pyrimidine-5-carboxylate]	2.1	> 1500		
CCOC(=O)c1c[nH]c2ncnc(-c3ccc(C)c(N)c3)c12 [Example 1-22, ethyl 4-(3-amino-4-methylphenyl)-7H-pyrrolo[2,3-d]pyrimidine-5-carboxylate]	4.6	78		
CCOC(=O)c1c[nH]c2ncnc(-c3cccc(NC(=O)NC#N)c3)c12 [Example 9-2, ethyl 4-(3-(3-cyanoureido)phenyl)-7H-pyrrolo[2,3-d]pyrimidine-5-carboxylate]			10 to 500	10 to 500
CCOC(=O)c1c[nH]c2ncnc(-c3ccc(N(C)C)cc3)c12 [Example 1-47, ethyl 4-[4-(dimethylamino)phenyl]-7H-pyrrolo[2,3-d]pyrimidine-5-carboxylate]	3.3	90		
C/C=C\C(=O)Nc1cccc(-c2ncnc3[nH]cc(C(=O)OCC)c23)c1 [Example 5-9, ethyl 4-{3-[(2Z)-but-2-enoylamino]phenyl}-7H-pyrrolo[2,3-d]pyrimidine-5-carboxylate]	8.3	> 1500		
CCOC(=O)c1c[nH]c2ncnc(-c3cccc(NC(=O)/C(C)=C/c4ccccc4)c3)c12 [Example 5-43, ethyl 4-(3-{[(2E)-2-methyl-3-phenylprop-2-enoyl]amino}phenyl)-7H-pyrrolo[2,3-d]pyrimidine-5-carboxylate]			10 to 500	> 500
CCOC(=O)c1c[nH]c2ncnc(-c3cccc(OC)c3)c12 [Example 1-17, ethyl 4-(3-methoxyphenyl)-7H-pyrrolo[2,3-d]pyrimidine-5-carboxylate]			10 to 500	10 to 500
CCOC(=O)c1c[nH]c2ncnc(-c3ccc4nnn(C)c4c3)c12 [Example 1-67, ethyl 4-(1-methyl-1H-benzotriazol-6-yl)-7H-pyrrolo[2,3-d]pyrimidine-5-carboxylate]			10 to 500	> 500
CCOC(=O)c1c[nH]c2ncnc(-c3ccc4c(c3)C(=O)NC4)c12 [Example 1-75, ethyl 4-(3-oxo-2,3-dihydro-1H-isoindol-5-yl)-7H-pyrrolo[2,3-d]pyrimidine-5-carboxylate]			10 to 500	> 500
CCOC(=O)c1c[nH]c2ncnc(-c3ccn[nH]3)c12 [Example 1-81, ethyl 4-(1H-pyrazol-5-yl)-7H-pyrrolo[2,3-d]pyrimidine-5-carboxylate]			10 to 500	> 500
CCOC(=O)c1c[nH]c2ncnc(-c3ccc4[nH]ncc4c3)c12 [Example 1-69, ethyl 4-(1H-indazol-5-yl)-7H-pyrrolo[2,3-d]pyrimidine-5-carboxylate]	6.5	98		
C=CS(=O)(=O)Nc1cccc(-c2ncnc3[nH]cc(C(=O)OCC)c23)c1 [Example 10-1, Ethyl 4-{3-[(ethenylsulfonyl)amino]phenyl}-7H-pyrrolo[2,3-d]pyrimidine-5-carboxylate]	0.037	> 1500		
CCOC(=O)c1c[nH]c2ncnc(-c3cccc(NC(=O)CC)c3)c12 [Example 4-7, ethyl 4-[3-(propanoylamino)phenyl]-7H-pyrrolo[2,3-d]pyrimidine-5-carboxylate]			10 to 500	> 500
C=C(C)C(=O)Nc1cccc(-c2ncnc3[nH]cc(C(=O)OC)c23)c1 [Example 11-2, methyl 4-{3-[(2-methylacryloyl)amino]phenyl}-7H-pyrrolo[2,3-d]pyrimidine-5-carboxylate]	2	> 1500		
COc1ccccc1-c1c[nH]c2ncnc(-c3cccc(C(=O)N(C)C)c3)c12 [Example 33-5, 3-[5-(2-methoxyphenyl)-7H-pyrrolo[2,3-d]pyrimidin-4-yl]-N,N-dimethylbenzamide]			10 to 500	> 500

From US8993756B2 (Merck Sharp & Dohme Corp., priority 2011, dated 2015)
